Ki and EC50 data for ten compounds are collected here from US7888329B2, “Substituted aryl piperidinylalkynyladenosines as A2AR agonists” (PGxHealth, LLC, priority 2006, dated 2011).

pEC50, pKi: −log10 of the molar value. Like-named read-outs stand apart in the source and are kept apart here.

For test [1], the target named is T1, recombinant human A2A receptors (Homo sapiens, UniProt P29274).
T1 construct: expressed in transfected cells; host or cells: Sf9 insect cells infected with virus; membranes
T1 sequence (P29274 whole entry): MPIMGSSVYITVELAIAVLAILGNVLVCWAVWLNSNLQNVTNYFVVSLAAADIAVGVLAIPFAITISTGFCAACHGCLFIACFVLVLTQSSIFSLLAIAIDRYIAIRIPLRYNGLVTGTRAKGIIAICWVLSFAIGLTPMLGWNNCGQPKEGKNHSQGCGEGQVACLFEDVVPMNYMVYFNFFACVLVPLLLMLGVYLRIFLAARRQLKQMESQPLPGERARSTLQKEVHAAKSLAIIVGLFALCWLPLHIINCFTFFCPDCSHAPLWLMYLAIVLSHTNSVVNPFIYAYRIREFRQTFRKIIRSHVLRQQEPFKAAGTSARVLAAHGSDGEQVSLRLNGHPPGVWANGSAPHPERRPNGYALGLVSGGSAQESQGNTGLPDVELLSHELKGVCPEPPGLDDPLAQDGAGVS
The test is described as follows: Radioligand competition binding with 125I-APE or 125I-ZM241385, Sf9 cell membranes. The note with it: 125I-APE or 125I-ZM241385, Sf9 membranes. On the procedure: Cell culture and membrane preparation. Sf9 cells were cultured in Grace's medium supplemented with 10% fetal bovine serum, 2.5 μg/ml amphotericin B and 50 μg/ml gentamycin in an atmosphere of 50% N2/50% O2. Viral infection was performed at a density of 2.5×10^6 cells/mL with a multiplicity of infection of two for each virus used. Infected cells were harvested 3 days post-infection and washed twice in insect PBS (PBS pH 6.3). Cells were then resuspended in lysis buffer (20 mM HEPES pH 7.5, 150 mM NaCl, 3 mM MgCl2, 1 mM α-mercaptoethanol (BME), 5 μg/mL leupeptin, 5 μg/mL pepstatin A, 1 μg/mL aprotinin, and 0.1 mM PMSF) and snap frozen for storage at −80° C. Cells were thawed on ice, brought to 30 mL total volume in lysis buffer, and burst by N2 cavitation (600 psi for 20 minutes). A low-speed centrifugation was performed to remove any unlysed cells (1000×g for 10 minutes), followed by a high-speed centrifugation (17,000×g for 30 minutes). The pellet from the final centrifugation was homogenized in buffer containing 20 mM HEPES pH 8, 1100 mM NaCl, 1% glycerol, 2 μg/mL leupeptin, 2 μg/mL pepstatin A, 2 μg/mL Aprotinin, 0.1 mM PMSF, and 10 μM GDP using a small glass homogenizer followed by passage through a 26 gauge needle. Membranes were aliquoted, snap frozen in liquid N2, and stored at −80° C.
Radioligand Binding Assays. […] Binding experiments were performed in triplicate with 5 μg (A2A) or 25 μg (A1 and A3) membrane protein in a total volume of 00.1 mL HE buffer (20 mM HEPES and 1 mM EDTA) with 1 U/mL adenosine deaminase and 5 mM MgCl2 with or without 50 μM GTPγS. Membranes were incubated with radioligands at room temperature for three hours (for agonists) or two hours (for antagonists) in Millipore Multiscreen® 96-well GF/C filter plates and assays were terminated by rapid filtration on a cell harvester (Brandel, Gaithersburg, Md.) followed by 4×150 μl washes over 30 seconds with ice cold 10 mM Tris-HCl, pH 7.4, 10 mM MgCl2. Nonspecific binding was measured in the presence of 50 μM NECA.
Background: Displacement assays read how much labelled ligand stays bound in the presence of the test substance.

Test [2] addresses T2, human A3 AR (Homo sapiens, UniProt P0DMS8).
T2 construct: expressed in transfected cells; membranes
T2 sequence (P0DMS8 1-318): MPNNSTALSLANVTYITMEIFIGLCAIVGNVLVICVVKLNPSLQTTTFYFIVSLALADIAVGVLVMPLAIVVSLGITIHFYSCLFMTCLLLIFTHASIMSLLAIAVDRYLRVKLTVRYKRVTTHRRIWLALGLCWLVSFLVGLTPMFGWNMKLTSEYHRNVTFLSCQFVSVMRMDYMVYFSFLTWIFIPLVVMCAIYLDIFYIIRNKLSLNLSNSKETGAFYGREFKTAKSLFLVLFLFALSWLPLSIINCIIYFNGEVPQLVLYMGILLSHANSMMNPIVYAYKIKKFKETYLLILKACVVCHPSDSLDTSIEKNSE
The test is described as follows: Radioligand competition binding with 125I-ABA, membranes of HEK 293 cells stably expressing the receptor. As for the experimental part: Cell culture and membrane preparation. Sf9 cells were cultured in Grace's medium supplemented with 10% fetal bovine serum, 2.5 μg/ml amphotericin B and 50 μg/ml gentamycin in an atmosphere of 50% N2/50% O2. Viral infection was performed at a density of 2.5×10^6 cells/mL with a multiplicity of infection of two for each virus used. Infected cells were harvested 3 days post-infection and washed twice in insect PBS (PBS pH 6.3). Cells were then resuspended in lysis buffer (20 mM HEPES pH 7.5, 150 mM NaCl, 3 mM MgCl2, 1 mM α-mercaptoethanol (BME), 5 μg/mL leupeptin, 5 μg/mL pepstatin A, 1 μg/mL aprotinin, and 0.1 mM PMSF) and snap frozen for storage at −80° C. Cells were thawed on ice, brought to 30 mL total volume in lysis buffer, and burst by N2 cavitation (600 psi for 20 minutes). A low-speed centrifugation was performed to remove any unlysed cells (1000×g for 10 minutes), followed by a high-speed centrifugation (17,000×g for 30 minutes). The pellet from the final centrifugation was homogenized in buffer containing 20 mM HEPES pH 8, 1100 mM NaCl, 1% glycerol, 2 μg/mL leupeptin, 2 μg/mL pepstatin A, 2 μg/mL Aprotinin, 0.1 mM PMSF, and 10 μM GDP using a small glass homogenizer followed by passage through a 26 gauge needle. Membranes were aliquoted, snap frozen in liquid N2, and stored at −80° C. Membranes from cells stably expressing the human A1 AR (CHO K1 cells) or A3 AR (HEK 293 cells) were prepared as described (Robeva et al., 1996).
Radioligand Binding Assays. Radioligand binding to recombinant human A2A receptors in Sf9 cell membranes was performed using either the radiolabeled agonist, ^125I-APE (Luthin et al., 1995) or the radiolabeled antagonist, ^125I-ZM241385 (^125I-ZM). To detect the high affinity, GTPγS-sensitive state of A1 and A3 AR, we used the agonist, ^125I-ABA (Linden et al., 1985; Linden et al., 1993). Binding experiments were performed in triplicate with 5 μg (A2A) or 25 μg (A1 and A3) membrane protein in a total volume of 00.1 mL HE buffer (20 mM HEPES and 1 mM EDTA) with 1 U/mL adenosine deaminase and 5 mM MgCl2 with or without 50 μM GTPγS. Membranes were incubated with radioligands at room temperature for three hours (for agonists) or two hours (for antagonists) in Millipore Multiscreen® 96-well GF/C filter plates and assays were terminated by rapid filtration on a cell harvester (Brandel, Gaithersburg, Md.) followed by 4×150 μl washes over 30 seconds with ice cold 10 mM Tris-HCl, pH 7.4, 10 mM MgCl2. Nonspecific binding was measured in the presence of 50 μM NECA. Competition binding assays were performed as described (Robeva et al., 1996) using 0.5-1 nM ^125I-APE, ^125I-ZM241385, or ^125I-ABA. […] The Ki values for competing compound binding to a single site were derived from IC50 values with correction for radioligand and competing compound depletion as described previously (Linden, 1982).

The test system of test [3] is Purified human neutrophils. The test is described as follows: Luminol enhanced chemiluminescence (neutrophil oxidative activity), fMLP stimulated. It is filed as cell-based. Conditions: Homo sapiens, Neutrophil; for pEC50: read-out: Functional. An excerpt: Chemiluminescence Methods: Luminol enhanced chemiluminescence, a measure of neutrophil oxidative activity, is dependent upon both superoxide production and mobilization of the granule enzyme myeloperoxidase. The light is emitted from unstable high-energy oxygen species such as hypochlorous acid and singlet oxygen generated by activated neutrophils.
Purified human neutrophils (2×10^6/ml) suspended in Hanks balanced salt solution containing 0.1% human serum albumin (HA), adenosine deaminase (1 U/mL) and rolipram (100 nM) were incubated (37 C) in a water bath for 15 min with or without rhTNF (10 U/ml). Following incubation 100 µL aliquots of the PMN were transferred to wells (White walled clear bottom 96 well tissue culture plates Costar #3670; 2 wells/condition) containing […] and luminol (final concentration 100M) with or without adenosine agonist (final agonist concentrations 0.01-1000 nM). The plate was incubated 5 min (37 C) and then fMLP (50 l in HA; final concentration […]) was added to all wells.
Peak chemiluminescence was determined with a Victor 1420 Multilabel Counter in the chemiluminescence mode using the Wallac Workstation software. Data are presented as peak chemiluminescence as percent of activity in the absence of an adenosine agonist. The EC50 was determined using PRISM software. All compounds were tested with PMNs from three separate donors.

The target in test [4] is T3, human A1 AR (Homo sapiens, UniProt P30542).
T3 construct: expressed in transfected cells; membranes
T3 sequence (P30542 1-326): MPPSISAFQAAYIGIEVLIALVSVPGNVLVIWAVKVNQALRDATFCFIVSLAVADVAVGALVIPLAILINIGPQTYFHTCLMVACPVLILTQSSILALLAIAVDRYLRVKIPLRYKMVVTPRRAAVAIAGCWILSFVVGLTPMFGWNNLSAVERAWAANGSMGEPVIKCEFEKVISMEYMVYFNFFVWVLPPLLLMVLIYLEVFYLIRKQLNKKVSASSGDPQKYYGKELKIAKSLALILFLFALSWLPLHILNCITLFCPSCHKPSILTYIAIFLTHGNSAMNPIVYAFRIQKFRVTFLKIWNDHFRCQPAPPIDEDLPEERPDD
The test is described as follows: Radioligand competition binding with 125I-ABA, membranes of CHO K1 cells stably expressing the receptor.

The mark [5] stands for this setting: Ki derived from IC50, class symbols.

Broadly, the pKi is the Ki on a negative log10 scale, so that one unit is a factor of ten. `COc1ccccc1OC(=O)N1CCC(CC#Cc2nc(N)c3ncn([C@@H]4O[C@H](CO)[C@@H](O)[C@H]4O)c3n2)CC1` [Compound 36, 2-{3-[1-((2-Methoxy)phenoxycarbanoyl)piperidin-4-yl]propyn-1-yl}adenosine]: the figures for the pKi in test [1] (class symbols), in test [2] (setting [5]) and in test [4] (setting [5]) were > 9.00, > 7.00 and > 7.00, respectively. Moreover, the pEC50 in test [3] is > 8.00.
Consider `Nc1nc(C#CCC2CCN(C(=O)Oc3cccc([N+](=O)[O-])c3)CC2)nc2c1ncn2[C@@H]1O[C@H](C(=O)NC2CC2)C(O)[C@@H]1O` (stereo partly shown) [Compound 56, N-Cyclopropyl 2-{3-[1-(3-nitrophenoxycarbonyl)-4-piperidinyl]-1-propyn-1-yl}adenosine-5′-uronamide], for which the pKi is > 9.00 in test [1] (class symbols), < 7.00 in test [2] (setting [5]) and > 7.00 in test [4] (setting [5]). Moreover, the pEC50 in test [3] was > 9.00.
For the compound `Nc1nc(C#CCC2CCN(C(=O)Oc3ccc(F)cc3)CC2)nc2c1ncn2[C@@H]1O[C@H](C(=O)NC2CC2)C(O)[C@@H]1O` (stereo partly shown) [Compound 8, N-Cyclopropyl 2-{3-[1-(4-fluorophenoxycarbonyl)-4-piperidinyl]-1-propyn-1-yl}adenosine-5′-uronamide], the pKi in test [1] (class symbols) is > 9.00; in test [2] (setting [5]), > 7.00; in test [4] (setting [5]), > 7.00. Further, the pEC50 in test [3] is > 9.00.
With `CCNC(=O)[C@H]1O[C@@H](n2cnc3c(N)nc(C#CCC4CCN(C(=O)Oc5ccc(F)cc5)CC4)nc32)[C@@H](O)C1O` (stereo partly shown) [Compound 24, N-Ethyl 2-{3-[1-(4-fluorophenyloxycarbonyl)-4-piperidinyl]-1-propyn-1-yl}adenosine-5′-uronamide], the values for the pKi in test [1] (class symbols), in test [2] (setting [5]) and in test [4] (setting [5]) were > 9.00, > 8.00 and > 7.00, respectively. For the same compound, the pEC50 in test [3] is > 9.00.
`Nc1nc(C#CCC2CCN(C(=O)Oc3ccccc3)CC2)nc2c1ncn2[C@@H]1O[C@H](C(=O)NC2CC2)C(O)[C@@H]1O` (stereo partly shown) [Compound 1, N-Cyclopropyl 2-{3-[1-(phenyloxycarbonyl)-4-piperidinyl]-1-propyn-1-yl}adenosine-5′-uronamide, reference compound]: the figures for the pKi in test [1] (Ki derived from IC50), in test [2] (Ki derived from IC50) and in test [4] (Ki derived from IC50) were 9.25, 7.47 and 7.46, respectively. In test [3], the pEC50 is 9.25.
Turning to `COc1ccccc1OC(=O)N1CCC(CC#Cc2nc(N)c3ncn([C@@H]4O[C@H](C(=O)NC5CC5)C(O)[C@@H]4O)c3n2)CC1` (stereo partly shown) [Compound 21, N-Cyclopropyl 2-{3-[1-(2-methoxyphenyloxycarbonyl)-4-piperidinyl]-1-propyn-1-yl}adenosine-5′-uronamide], the pKi in test [1] (class symbols) is > 9.00; in test [2] (setting [5]), > 7.00; in test [4] (setting [5]), > 7.00. Also, the pEC50 in test [3] is > 8.00.
Take `CCNC(=O)[C@H]1O[C@@H](n2cnc3c(N)nc(CCCC4CCN(C(=O)Oc5ccc(NO)cc5)CC4)nc32)[C@@H](O)C1O` (stereo partly shown) [Compound 37]: the pKi in test [1] (class symbols) was > 9.00; in test [2] (setting [5]), > 7.00; in test [4] (setting [5]), > 7.00. The EC50 in test [3] (read-out: Functional (nM)) was < 10 nM.
As for `Cc1ccc(OC(=O)N2CCC(CC#Cc3nc(N)c4ncn([C@@H]5O[C@H](C(=O)NC6CC6)C(O)[C@@H]5O)c4n3)CC2)cc1` (stereo partly shown) [Compound 20, N-Cyclopropyl 2-{3-[1-(4-methylphenyloxycarbonyl)-4-piperidinyl]-1-propyn-1-yl}adenosine-5′-uronamide], the pKi in test [1] (class symbols) was > 9.00; in test [2] (setting [5]) it was < 7.00; in test [4] (setting [5]), > 7.00. The pEC50 in test [3] is > 9.00.
In the case of `Nc1nc(C#CCC2CCN(C(=O)Oc3ccc(Cl)cc3)CC2)nc2c1ncn2[C@@H]1O[C@H](CO)[C@@H](O)[C@H]1O` [Compound 27, 2-{3-[1-((4-Chloro)phenoxycarbanoyl)piperidin-4-yl]propyn-1-yl}adenosine], the pKi in test [1] (class symbols) was > 9.00; in test [2] (setting [5]), > 7.00; in test [4] (setting [5]), > 7.00. Further, the pEC50 in test [3] is > 8.00.
On to `Nc1nc(C#CCC2CCN(C(=O)Nc3cccc(Cl)c3)CC2)nc2c1ncn2[C@@H]1O[C@H](CO)C(O)[C@@H]1O` (stereo partly shown) [Compound 46], for which the figures for the pKi in test [1] (class symbols), in test [2] (setting [5]) and in test [4] (setting [5]) were > 8.00, > 7.00 and > 7.00, respectively. Further, in test [3], the pEC50 is > 7.00.
